According to patent US11260053B2, “Bile acid recycling inhibitors and satiogens for treatment of diabetes, obesity, and inflammatory gastrointestinal conditions” (Satiogen Pharmaceuticals, Inc., priority 2010, dated 2022):
Read-outs that look alike come from different tables or passages of the source.

How the values were obtained:
[1] = test system: diabetic db/db mice; experiment: Oral ASBTI with DPP-IV inhibitor versus subcutaneous exenatide, blood glucose (Example 9); assay type: in vivo
[2] = test system: male db/db mice; experiment: In vivo assay for reduction in blood glucose levels (Example 7A); conditions: for reduction in plasma glucose from baseline: after 6 hours, oral
Procedure: Male db/db mice 6-7 weeks (approx 30 g) were fasted for 2 h. A combination of (−)-(3R,5R)-trans-3-butyl-3-ethyl-2,3,4,5-tetrahydro-7,8-dimethoxy-5-phenyl-1,4-benzothiazepine1,1-dioxide (Compound 100A) at doses of 0, 0.1, 1, 10, mg/kg in 10% of DMSO-water and 30 mg/kg sitagliptin (DPP-IV inhibitor) in a mixture of valine-pyrrolidine in water was administered orally to male db/db mice (n=7-10 per group). Blood sample (˜1 μl from tail for glucose level testing) was taken at t=−24 h, 0, 60, 180, 240, 300, 360 min and 24 h after administration.

[3] = test system: male db/db mice; experiment: In vivo assay for reduction in blood glucose levels (Example 7B); conditions: for reduction in plasma glucose from baseline: after 6 hours, oral, male db/db mice
Procedure: Male db/db mice 8-9 weeks (approx 40 g) were fasted for 2 h. […] Blood sample (˜1 μl from tail for glucose level testing) was taken at t=−24 h, 0, 1, 3, 4, 5, 6 h and 24 h after administration.

[4] = test system: GLP-1; experiment: Plasma GLP-1 levels in normal rats after oral dosing (Example 8); assay type: in vivo
Procedure: 12-week-old male HSD rats were fasted for 16 h and given oral dose of 0, 3, 30, 100 mg/kg of the ASBTI 1-[4-[4-[(4R,5R)-3,3-dibutyl-7-(dimethylamino)-2,3,4,5-tetrahydro-4-hydroxy-1,1-dioxido-1-benzothiepin-5-yl]phenoxy]butyl]4-aza-1-azoniabicyclo[2.2.2]octane methane sulfonate (Synthesized by Nanosyn Inc., CA, USA) or metformin (Control, 0, 3, 30, 100, 300 mg/kg) in saline and a dose of 30 mg/kg sitaglipin in a mixture of valine-pyrrolidine in water (n=5 per group). Blood samples in volume of 0.6 ml for each time point were taken from the caudal vein with a heparinized capillary tube 0, 1, 3 and 5 h after the administration of compounds and plasma GLP-1 level were determined. Aprotinin and 10 μl of DPP-IV inhibitor per ml of blood were used for blood sample preservation during 10 min centrifugation and for storage at −70° C. or below. GLP-1 (Active pM) was tested by Millipore ELISA Kits (Millipore Corporation, 290 Concord Road, Billerica, Mass.).

[5] = test system: Sprague Dawley rats; conditions: 500 mM sodium taurocholate gel, 3 mL per rectum, overnight-fasted rats, 6 hour period
Procedure: Using a stainless steel dissolving vessel fitted with a propeller stirrer 1 gram of methyl cellulose is dissolved in 100 mL of purified water and stirred for 15 minutes. 5 syringes connected to gavage tubes are then each filled with 3 mL of the composition.
The sodium taurocholate rectal gel described above was rectally administered to 6 conscious overnight-fasted subjects (e.g., Sprague Dawley rats) and the control rectal gel without the sodium taurocholate was rectally administered to 5 conscious overnight-fasted subjects (e.g., Sprague Dawley rats). Each rat was then exposed to pre-weighed food and the cumulative consumption of the food was determined over a 6 hour period by weighing the food after 30 minutes, 60 minutes, 120 minutes, 240 minutes and 360 minutes.

[6] = test system: Sprague Dawley rats
Procedure: Using a stainless steel dissolving vessel fitted with a propeller stirrer 1 gram of methyl cellulose is dissolved in 100 mL of purified water and stirred for 15 minutes. 12 syringes connected to gavage tubes are then each filled with 3 mL of the composition.
A 4×4 Latin Square design is used to monitor the effect of the different concentration of taurocholate on the food uptake of overnight-fasted Sprague Dawley rats. Each concentration is tested in triplicate with four rats used per replicate.
The ED50 for inhibition of food intake is obtained by plotting the normalizing the dose response for the anorectic effect of taurocholate to the control data as a log of taurocholate dose vs the percentage of control cumulative intake (FIG. 7).

[7] = test system: obese diabetic humans; conditions: rectal 0.66, 2.0, 6.66, 20.0 mmoles in 20 ml 1% carboxymethyl cellulose gel, after 100 mg sitagliptin
Procedure: Studies were undertaken after an overnight fast following administration (8-10 hours prior to bile salt) of 100 mg sitagliptin, a DPP-4 inhibitor that protects GLP-1 from inactivation by proteolysis. […] The taurocholic acid was administered into the rectum by syringe in a total volume of 20 ml of 1% carboxymethyl cellulose gel. Each dose was administered on a different day with at least three days between doses.

SMILES: CCCC[C@]1(CC)CS(=O)(=O)c2cc(OC)c(OC)cc2[C@@H](c2ccccc2)N1 (relative stereo) [Compound 100A, (−)-(3R,5R)-trans-3-butyl-3-ethyl-2,3,4,5-tetrahydro-7,8-dimethoxy-5-phenyl-1,4-benzothiazepine1,1-dioxide]
- reduction of plasma glucose levels ([1]; 3 hours post-dose, oral 10 mg/kg in combination with 30 mg/kg sitagliptin): 35%
- change in body weight ([2]; 24 h after administration, FIG. 9): Weight loss
- plasma glucose concentrations ([2]; ASBTI alone, male db/db mice, FIG. 1): lowers plasma glucose concentrations
- reduction in plasma glucose from baseline ([2]; dose 01 mg/kg (so in the source) with 30 mg/kg sitagliptin, male db/db mice): 5.6%
- reduction in plasma glucose from baseline ([2]; dose 1 mg/kg with 30 mg/kg sitagliptin, male db/db mice): 15%
- reduction in plasma glucose from baseline ([2]; dose 10 mg/kg with 30 mg/kg sitagliptin, male db/db mice): 42.3%
- elevated blood glucose levels compared to control mice treated with sitagliptin alone or vehicle ([2]; single oral administration in combination with 30 mg/kg sitagliptin, FIG. 1): dose-dependent reduction

SMILES: CCCCC1(CCCC)CS(=O)(=O)c2ccc(N(C)C)cc2[C@@H](c2ccc(OCCCC[N+]34CCN(CC3)CC4)cc2)[C@H]1O.CS(=O)(=O)[O-] [Compound 100B, 1-[4-[4-[(4R,5R)-3,3-dibutyl-7-(dimethylamino)-2,3,4,5-tetrahydro-4-hydroxy-1,1-dioxido-1-benzothiepin-5-yl]phenoxy]butyl]4-aza-1-azoniabicyclo[2.2.2]octane methane sulfonate salt]
- change in body weight ([3]; 24 h after administration, in combination with sitagliptin, FIG. 8): Weight loss
- plasma glucose levels ([3]; ASBTI alone, db/db mice, FIG. 4): lowers plasma glucose levels in dose dependent manner
- reduction in plasma glucose from baseline ([3]; dose 3 mg/kg with 30 mg/kg sitagliptin): 5.6%
- reduction in plasma glucose from baseline ([3]; dose 30 mg/kg with 30 mg/kg sitagliptin): 15%
- reduction in plasma glucose from baseline ([3]; dose 100 mg/kg with 30 mg/kg sitagliptin): 42.3%
- elevated blood glucose levels compared to control mice treated with sitagliptin alone or vehicle ([3]; single oral administration in combination with 30 mg/kg sitagliptin, FIG. 2): dose-dependent reduction
- blood glucose levels compared with exenatide ([1]; 3 hours after dosing, oral, in combination with 30 mg/kg sitagliptin, FIG. 10): reduces blood glucose levels more than a single subcutaneous injection of 0.02 mg/kg exenatide
- plasma GLP-1 levels ([4]; ASBTI alone, oral 0, 3, 30, 100 mg/kg, FIG. 6, FIG. 7): elevation in GLP-1 levels in a dose-dependent manner
- plasma GLP-1 levels ([4]; ASBTI in combination with 30 mg/kg sitagliptin, oral, FIG. 6, FIG. 7): elevation in GLP-1 levels in a dose-dependent manner

SMILES: CN(C)C(=N)N=C(N)N [metformin, reference compound]
- plasma GLP-1 levels ([4]; metformin in combination with 30 mg/kg sitagliptin, oral, FIG. 5): elevation in GLP-1 levels

SMILES: N[C@@H](CC(=O)N1CCn2c(nnc2C(F)(F)F)C1)Cc1cc(F)c(F)cc1F [sitagliptin, (3R)-3-amino-1-[9-(trifluoromethyl)-1,4,7,8-tetrazabicyclo[4.3.0]nona-6,8-dien-4-yl]-4-(2,4,5-trifluorophenyl)butan-1-one, reference compound]
- reduction in plasma glucose from baseline ([3]; dose 0 mg/kg of ASBTI with 30 mg/kg sitagliptin): 5.5%
- reduction in plasma glucose from baseline ([2]; dose 0 mg/kg of ASBTI with 30 mg/kg sitagliptin, male db/db mice): 5.5%

SMILES: C[C@H](CCC(=O)NCCS(=O)(=O)O)[C@H]1CC[C@H]2[C@@H]3[C@H](O)C[C@@H]4C[C@H](O)CC[C@]4(C)[C@H]3C[C@H](O)[C@]12C [taurocholate, taurocholic acid]
- cumulative food intake compared to gel alone [5]: reduced
- cumulative food intake ([6]; 50, 150, 500 mM taurocholate gels, 3 mL per rectum, overnight-fasted rats): dose dependently related to the quantity of taurocholate administered
- ED50 for inhibition of food intake ([6]; 24 hour intake): 7.2 mmol/rat
- ED50 for inhibition of food intake ([6]; at 1 hour): 1.6 mmol/rat
- ED50 for inhibition of food intake ([6]; at 1 hour, 3 mL doses per rectum): 528 mM
- time for which differences in food uptake are maintained ([6]; rectal taurocholate gels, rats): at least 24 hours
- circulating GLP-1 levels [7]: increase
- circulating PYY levels [7]: increase
